Source: patent US6514981B1, “Methods of modulating tyrosine protein kinase function with indolinone compounds” (Sugen, Inc., priority 1998, dated 2003)

How the values were obtained:
human FLK-1 [1] = molecular target: T1, human FLK-1 (Homo sapiens, UniProt P35968); assay: FLK-1 receptor phosphorylation assay in cells (ELISA); format: cell-based; details: NIH3T3 C7#3 cells, VEGF stimulation
HUV-EC-C cells = assay: HUV-EC-C assay (3H-thymidine), VEGF; format: cell-based; details: Homo sapiens, 3H-thymidine incorporation, HUVEC
Procedure: The following protocol may also be used to measure a compound's activity against PDGF-R, FGF-R or Flk-1/KDR, all of which are naturally expressed by HUV-EC cells. 1. Wash and trypsinize HUV-EC-C cells (human umbilical vein endothelial cells, (American Type Culture Collection; catalogue no. 1730 CRL). Wash with Dulbecco's phosphate-buffered saline (D-PBS; obtained from Gibco BRL, catalogue no. 14190-029) 2 times at about 1 mL/10 CM^2 of tissue culture flask. Trypsinize with 0.05% trypsin-EDTA in non-enzymatic cell dissociation solution (Sigma Chemical Company; catalogue no. C-1544). The 0.05% trypsin was made by diluting 0.25% trypsin/1 mM EDTA (Gibco; catalogue no. 25200-049) in the cell dissociation solution. Trypsinize with about 1 mL/25-30 cm^2 of tissue culture flask for about 5 minutes at 37° C. After cells have detached from the flask, add an equal volume of assay medium and transfer to a 50 mL sterile centrifuge tube (Fisher Scientific; catalogue no. 05-539-6). 2. Wash the cells with about 35 mL assay medium in the 50 mL sterile centrifuge tube by adding the assay medium, centrifuge for 10 minutes at approximately 200×g aspirate the supernatant and resuspend with 35 mL D-PBS. Repeat the wash two more times with D-PBS, resuspend the cells in about 1 mL assay medium/15 cm^2 of tissue culture flask. […]

human FLK-1 [2] = molecular target: T1, human FLK-1; assay: FLK-1 autophosphorylation assay in vitro (ELISA); format: biochemical; design: host or cells: FLK-1/NIH cells (NIH fibroblast line); lysate captured on L4 or E38 anti-FLK-1 antibody; details: FLK-1 autophosphorylation in vitro, immobilized FLK-1 from FLK-1/NIH cell lysate
Excerpt: The following protocol describes the ELISA procedures used to determine the FLK-1 autophosphorylation activity in vitro. The procedure also describes the protocol for the initial screening of indolinone compounds. 2. FLK-1/NIH cells: NIH fibroblast line overexpressing human FLK-1 clone 3 (MPI, Martinsried, Germany). 6. L4 or […]: monoclonal antibody specific for FLK-1; purified by protein-A agarose affinity chromatography (SUGEN, Inc., Redwood City, Calif.). 2. Remove the medium and wash the cells twice with PBS. Lyse with HNTG lysis buffer. Collect all lysates and mix them on a vortex for 20-30 seconds. 1. Coat Corning 96-well ELISA plates with 2 ug/well of purified L4 (or […]) in 100 μL of PBS overnight at 4° C. 5. Dilute lysate in PBS to give final concentration of 50 ug/100 μL. Add 100 μL of diluted lysate per well. Incubate with shaking at 4° C. overnight. 7. Add 80 μL of kinase buffer to the wells (negative control wells get 90 μL). 8. Dilue compounds (normally 10 fold) into wells of a polypropylene plate containing 20% DMSO in TBS. 9. Add 10 μL of the prediluted compounds to the ELISA wells containing immobilized FLK-1 and shake. Control wells receive no compound. […] When the color in the positive control wells reaches an absorbance of about 0.35-0.4, read plates on Dynatech MR7000 ELISA reader. The IC50 values measured in the above assay for the compound of formula VI are depicted in Table 1: […]
Target sequence in this assay (P35968 20-1356): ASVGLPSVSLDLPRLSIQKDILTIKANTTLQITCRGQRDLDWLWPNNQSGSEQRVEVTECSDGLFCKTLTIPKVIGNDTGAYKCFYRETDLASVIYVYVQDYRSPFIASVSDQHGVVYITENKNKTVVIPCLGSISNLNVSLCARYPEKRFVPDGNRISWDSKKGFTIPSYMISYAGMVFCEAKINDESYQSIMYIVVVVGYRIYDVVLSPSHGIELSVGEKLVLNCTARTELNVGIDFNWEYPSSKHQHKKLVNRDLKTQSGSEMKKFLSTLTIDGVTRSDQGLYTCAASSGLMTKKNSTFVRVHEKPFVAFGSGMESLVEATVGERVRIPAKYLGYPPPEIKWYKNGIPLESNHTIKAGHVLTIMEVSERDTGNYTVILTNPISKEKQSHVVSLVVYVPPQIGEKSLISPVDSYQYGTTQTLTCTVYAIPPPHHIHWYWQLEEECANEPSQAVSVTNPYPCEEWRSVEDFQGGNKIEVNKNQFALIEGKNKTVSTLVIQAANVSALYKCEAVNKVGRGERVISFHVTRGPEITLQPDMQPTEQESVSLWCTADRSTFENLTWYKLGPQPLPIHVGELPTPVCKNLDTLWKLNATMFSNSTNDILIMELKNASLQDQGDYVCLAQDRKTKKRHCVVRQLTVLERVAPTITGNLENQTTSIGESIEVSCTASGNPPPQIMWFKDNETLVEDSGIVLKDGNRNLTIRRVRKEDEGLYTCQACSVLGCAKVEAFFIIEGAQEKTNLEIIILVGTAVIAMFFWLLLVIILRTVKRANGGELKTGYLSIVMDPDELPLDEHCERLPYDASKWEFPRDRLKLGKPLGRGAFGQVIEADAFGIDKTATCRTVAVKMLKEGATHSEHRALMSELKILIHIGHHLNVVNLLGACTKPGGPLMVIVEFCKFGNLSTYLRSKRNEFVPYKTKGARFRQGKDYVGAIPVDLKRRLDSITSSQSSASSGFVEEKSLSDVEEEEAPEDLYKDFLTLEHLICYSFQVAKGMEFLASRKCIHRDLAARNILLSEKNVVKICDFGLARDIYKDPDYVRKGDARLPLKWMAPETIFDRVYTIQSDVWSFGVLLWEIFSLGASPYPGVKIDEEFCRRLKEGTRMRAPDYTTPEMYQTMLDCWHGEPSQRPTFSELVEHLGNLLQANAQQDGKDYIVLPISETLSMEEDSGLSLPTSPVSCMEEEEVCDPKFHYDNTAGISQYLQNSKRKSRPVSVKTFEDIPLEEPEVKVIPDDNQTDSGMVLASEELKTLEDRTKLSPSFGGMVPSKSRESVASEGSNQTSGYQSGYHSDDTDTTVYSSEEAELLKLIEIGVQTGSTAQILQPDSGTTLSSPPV

- IC50 (human FLK-1 [1]): 4.84 µM
- IC50 (HUV-EC-C cells): 0.68 µM
- IC50 (human FLK-1 [2]): > 50 µM
SMILES: Cc1cc(/C=C2/C(=O)Nc3ccccc32)c(C)c2c1[nH]c1ccccc12 [VI]
